What was measured:
[1] = cited from earlier work
[2] = Solubility determination by titrating deionised water, assessed visually; type: physicochemical; settings: visual, lower limit = soluble, upper limit = undissolved material present
Procedure: Solubility was assessed using known quantities (approx 1 mg) and titrating small volumes (2-40 microlitres) of deionised water and assessed visually. The data given are ranges. The lower limit represents soluble and upper limit the presence of undissolved material.

[3] = literature value, Ip et al. 1992; cited from earlier work
[4] = Thermal Mechanical Analysis (TMA) glass transition point; type: physicochemical; settings: compressed pellet, heating rate 10° C./min, 30-160° C.
Procedure: The method involves compressing 140 mg of material in a punch and die (3 mm) to 2 KN. The compressed pellet was then placed on the TMA and the 1.1 mm probe placed on the top face. A heating rate of 10° C./min was used and the sample was heated from 30-160° C.

[5] = Differential Scanning Calorimetry (DSC) glass transition; type: physicochemical; settings: dry amorphous lisinopril, anomalous endotherm
Procedure: Differential Scanning Calorimetry (DSC) was performed on approximately 0.5-3 mg sample, using a Mettler DSC820 instrument, according to standard methods, for example those described in Hohne et al. (1996) Differential scanning Calorimetry, Springer, Berlin.

NCCCC[C@H](NC(CCc1ccccc1)C(=O)O)C(=O)N1CCC[C@H]1C(=O)O (stereo partly drawn) [lisinopril, (S)-1-[N^2-(1-carboxy-3-phenylpropyl]-L-lysyl]-L-proline]
effective half-life of accumulation ([1]; multiple dosing): about 12.6 hours
time to peak serum concentrations ([1]; oral administration): ≤ 7 h

NCCCC[C@H](NC(CCc1ccccc1)C(=O)O)C(=O)N1CCC[C@H]1C(=O)O (stereo partly drawn) [Dihydrate, (S)-1-[N^2-(1-carboxy-3-phenylpropyl]-L-lysyl]-L-proline]
solubility [2]: 60 to 65 mg/mL
Reference solubility (mg/ml) [3]: 97^1 mg/ml

NCCCC[C@H](NC(CCc1ccccc1)C(=O)O)C(=O)N1CCC[C@H]1C(=O)O (stereo partly drawn) [amorphous lisinopril, (S)-1-[N^2-(1-carboxy-3-phenylpropyl]-L-lysyl]-L-proline]
glass transition temperature by TMA [4]: 129 °C
solubility ([2]; listed as Amorphous): 900 to 1250 mg/mL
glass transition temperature (Tg) by DSC [5]: 125 °C

Reference: patent US6458769B1, “Amorphous compound” (AstraZeneca AB, priority 2001, dated 2002)
